Tests used:
Format in all cases: physicochemical
[1] = Solution stability profile of Azacitidine in water at 25° C.; design: unit not given here
Description: In one embodiment of the invention, a batch of Azacitidine bulk solution was prepared by dissolving the compound (4 mg/mL) and Mannitol (4 mg/mL) in water at room temperature. […]

[2] = Solution stability profile of Azacitidine in water at −1° C. to 0° C.; design: RGU / Specified Imp-1 / Specified Imp-2 / RGU-CHO / Total Impurity (excluding RGU & RGU-CHO): unit not given here; conditions: for RGU / RGU-CHO / Specified Imp-1 / Specified Imp-2 / Total Impurity (excluding RGU & RGU-CHO): water, −1° C. to 0° C.
Description: It is evident from the Table I that Fabrication of the Azacitidine in water at room temperature led to a significant increase in the level of “RGU-CHO” in the Bulk Solution. Further, in order to control the degradation rate of Azacitidine, another batch was manufactured in water at possible temperature i.e. −1° C. to 0° C. by dissolving Azacitidine (4 mg/mL) and Mannitol (4 mg/mL) in water at −1° C. to 0° C. and the solution stability results are shown below in Table II.

[3] = Solution stability of Azacitidine bulk solution in Water:Acetonitrile 80:20% v/v at −5 ± 2° C.; design: RGU / RGU-CHO: unit not given beside the values
Description: (§1) In another aspect of the invention the fabrication temperature was controlled at −5±3° C., −5±2° C., −5±1° C. preferably −5±2° C. using Water and Acetonitrile ratio in between 95:5 to 70:30 preferably 80:20 (% v/v) respectively. The hold time data of Azacitidine, Decitabine and Bendamustine obtained in solvent mixture of Water and Acetonitrile at a ratio of 80:20 (% v/v), when fabricated at a temperature range of −5±2° C. is presented in Table VIII, IX, X respectively.

[4] = Stability profile of Bendamustine Hydrochloride pre-lyophilized bulk solution in water (5 mg/mL) at 5 ± 3° C.
[5] = Solution stability of Bendamustine Hydrochloride bulk solution in Water:Acetonitrile 80:20% v/v at −5 ± 2° C.
Description: as §1

## Nc1ncn([C@@H]2O[C@H](CO)[C@@H](O)[C@H]2O)c(=O)n1 [Azacitidine]
[1]; 1st hour
  Imp-1: 0.027
  Imp-2: 0.050
  RGU: 0.314
  RGU-CHO: 6.966
  Total Impurity (excluding RGU & RGU-CHO): 0.077
[1]; 2nd hour
  Imp-1: 0.028
  Imp-2: 0.050
  RGU: 0.591
  RGU-CHO: 10.495
  Total Impurity (excluding RGU & RGU-CHO): 0.078
[1]; Initial
  Imp-1: 0.027
  Imp-2: 0.051
  RGU: 0.164
  RGU-CHO: 1.158
  Total Impurity (excluding RGU & RGU-CHO): 0.078
[2]; manufacturing in water at −1° C. to 0° C.
  degradation in RGU-CHO: around 4%
[2]; 1st hour
  RGU: 0.175
  RGU-CHO: 1.767
  Specified Imp-1: 0.025
  Specified Imp-2: 0.051
  Total Impurity (excluding RGU & RGU-CHO): 0.076
[2]; 2nd hour
  RGU: 0.166
  RGU-CHO: 2.283
  Specified Imp-1: 0.025
  Specified Imp-2: 0.051
  Total Impurity (excluding RGU & RGU-CHO): 0.076
[2]; 3rd hour
  RGU: 0.175
  RGU-CHO: 2.921
  Specified Imp-1: 0.026
  Specified Imp-2: 0.051
  Total Impurity (excluding RGU & RGU-CHO): 0.077
[2]; 4th hour
  RGU: 0.191
  RGU-CHO: 4.112
  Specified Imp-1: 0.027
  Specified Imp-2: 0.051
  Total Impurity (excluding RGU & RGU-CHO): 0.078
[2]; Initial
  RGU: 0.158
  RGU-CHO: 0.891
  Specified Imp-1: 0.027
  Specified Imp-2: 0.051
  Total Impurity (excluding RGU & RGU-CHO): 0.078
[3]; 1st hour
  Assay: 101.00
  Imp-1: 0.028
  Imp-2: 0.066
  RGU: 0.145
  RGU-CHO: 0.326
  Total Impurity (excluding RGU & RGU-CHO): 0.094
[3]; 2nd hour
  Assay: 101.30
  Imp-1: 0.028
  Imp-2: 0.066
  RGU: 0.145
  RGU-CHO: 0.45
  Total Impurity (excluding RGU & RGU-CHO): 0.094
[3]; 3rd hour
  Assay: 100.80
  Imp-1: 0.031
  Imp-2: 0.068
  RGU: 0.146
  RGU-CHO: 0.591
  Total Impurity (excluding RGU & RGU-CHO): 0.099
[3]; 4th hour
  Assay: 101.30
  Imp-1: 0.026
  Imp-2: 0.067
  RGU: 0.146
  RGU-CHO: 0.730
  Total Impurity (excluding RGU & RGU-CHO): 0.093
[3]; 5th hour
  Assay: 101.00
  Imp-1: 0.049
  Imp-2: 0.069
  RGU: 0.148
  RGU-CHO: 0.839
  Total Impurity (excluding RGU & RGU-CHO): 0.118
[3]; Initial
  Assay: 101.80
  Imp-1: 0.05
  Imp-2: 0.068
  RGU: 0.143
  RGU-CHO: 0.164
  Total Impurity (excluding RGU & RGU-CHO): 0.118

## Cl.Cn1c(CCCC(=O)O)nc2cc(N(CCCl)CCCl)ccc21 [Bendamustine Hydrochloride]
[4]; 4 hr
  Bendamustine Dimer (RRT 1.23): 0.06%
  Bendamustine Ethyl Ester (BD 5) (RRT 1.38): 0.01%
  H-unk (Highest Unknown Impurity): 0.01%
  Monohydroxy Bendamustine (RRT 0.47): 0.58%
  Total Related Substances: 0.69%
[4]; 8 hr
  Bendamustine Dimer (RRT 1.23): 0.10%
  Bendamustine Ethyl Ester (BD 5) (RRT 1.38): 0.01%
  H-unk (Highest Unknown Impurity): 0.01%
  Monohydroxy Bendamustine (RRT 0.47): 1.59%
  Total Related Substances: 1.77%
[4]; 24 hr
  Bendamustine Dimer (RRT 1.23): 0.19%
  Bendamustine Ethyl Ester (BD 5) (RRT 1.38): 0.01%
  H-unk (Highest Unknown Impurity): 0.01%
  Monohydroxy Bendamustine (RRT 0.47): 4.13%
  Total Related Substances: 4.37%
[4]; Initial
  Bendamustine Dimer (RRT 1.23): 0.04%
  Bendamustine Ethyl Ester (BD 5) (RRT 1.38): 0.00%
  H-unk (Highest Unknown Impurity): 0.01%
  Monohydroxy Bendamustine (RRT 0.47): 0.12%
  Total Related Substances: 0.20%
[5]; 1 hr
  Bendamustine Dimer (RRT 1.23): 0.05%
  Bendamustine Ethyl Ester (BD 5) (RRT 1.38): 0.003%
  H-unk (Highest Unknown Impurity): 0.03%
  Monohydroxy Bendamustine (RRT 0.47): 0.02%
  Total Related Substances: 0.17%
[5]; 2 hr
  Bendamustine Dimer (RRT 1.23): 0.05%
  Bendamustine Ethyl Ester (BD 5) (RRT 1.38): 0.003%
  H-unk (Highest Unknown Impurity): 0.03%
  Monohydroxy Bendamustine (RRT 0.47): 0.03%
  Total Related Substances: 0.18%
[5]; 3 hr
  Bendamustine Dimer (RRT 1.23): 0.05%
  Bendamustine Ethyl Ester (BD 5) (RRT 1.38): 0.003%
  H-unk (Highest Unknown Impurity): 0.03%
  Monohydroxy Bendamustine (RRT 0.47): 0.04%
  Total Related Substances: 0.19%
[5]; 6 hr
  Bendamustine Dimer (RRT 1.23): 0.06%
  Bendamustine Ethyl Ester (BD 5) (RRT 1.38): 0.003%
  H-unk (Highest Unknown Impurity): 0.03%
  Monohydroxy Bendamustine (RRT 0.47): 0.07%
  Total Related Substances: 0.23%
[5]; 8 hr
  Bendamustine Dimer (RRT 1.23): 0.06%
  Bendamustine Ethyl Ester (BD 5) (RRT 1.38): 0.003%
  H-unk (Highest Unknown Impurity): 0.03%
  Monohydroxy Bendamustine (RRT 0.47): 0.09%
  Total Related Substances: 0.25%
[5]; Initial
  Bendamustine Dimer (RRT 1.23): 0.05%
  Bendamustine Ethyl Ester (BD 5) (RRT 1.38): 0.003%
  H-unk (Highest Unknown Impurity): 0.03%
  Monohydroxy Bendamustine (RRT 0.47): 0.01%
  Total Related Substances: 0.15%

Reference: patent US9872873B2, “Process for preparing stable pharmaceutical compositions of compounds susceptible to hydrolysis” (Fresenius Kabi Oncology Limited, priority 2012, dated 2018)
